Results reported in ChEMBL document CHEMBL5512651, “Synthesis and biological evaluation of 4-imidazolidinone-containing compounds as potent inhibitors of the MDM2/p53 interaction” (Eur J Med Chem, 2024).
Active and inactive are the calls of the source. The calls are words filed in the database; no cut-off is given here.

Tests used:
MOLM-13 [1] = test: Induction of apoptosis in human MOLM-13 cells assessed as early apoptotic cells at 24.3 uM incubated for 24 hrs by Annexin V-FITC/PI staining based flow cytometry (reference value: 4.44 %); format: functional
A549 = test: cells; conditions: Homo sapiens, A549, 96 h
MOLM-13 [2] = test: Induction of apoptosis in human MOLM-13 cells assessed as late apoptotic cells at 24.3 uM incubated for 24 hrs by Annexin V-FITC/PI staining based flow cytometry (reference value: 0.457 %); format: functional
MOLM-13 [3] = test: Induction of apoptosis in human MOLM-13 cells assessed as late apoptotic cells at 0.9 uM incubated for 24 hrs by Annexin V-FITC/PI staining based flow cytometry (reference value: 0.457 %); format: functional
MOLM-13 [4] = test: Induction of apoptosis in human MOLM-13 cells assessed as late apoptotic cells at 2.7 uM incubated for 24 hrs by Annexin V-FITC/PI staining based flow cytometry (reference value: 0.457 %); format: functional
[5] = biological target: Cellular tumor antigen p53 (Homo sapiens) (UniProt P04637); test: Activation of p53 pathway in human A549 cells assessed as increase in p21 level at 1 uM incubated for 24 hrs by Western blot analysis; format: cell-based; conditions: filed as activator
MOLM-13 [6] = test: Induction of apoptosis in human MOLM-13 cells assessed as early apoptotic cells at 2.7 uM incubated for 24 hrs by Annexin V-FITC/PI staining based flow cytometry (reference value: 4.44 %); format: functional
MOLM-13 [7] = test: Induction of apoptosis in human MOLM-13 cells assessed as early apoptotic cells at 0.1 uM incubated for 24 hrs by Annexin V-FITC/PI staining based flow cytometry (reference value: 4.44 %); format: functional
MOLM-13 [8] = test: Induction of apoptosis in human MOLM-13 cells assessed as necrotic cells at 0.1 uM incubated for 24 hrs by Annexin V-FITC/PI staining based flow cytometry (reference value: 0.020 %); format: functional
MOLM-13 [9] = test: Induction of apoptosis in human MOLM-13 cells assessed as viable cells at 0.9 uM incubated for 24 hrs by Annexin V-FITC/PI staining based flow cytometry (reference value: 95.1 %); format: functional; conditions: read-out: Activity
[10] = biological target: Tumour suppressor p53/oncoprotein Mdm2 (Homo sapiens, UniProt Q00987); test: Inhibition of MDM2/p53 (unknown origin) interaction by fluorescence polarization assay; format: protein assay
[11] = biological target: Cellular tumor antigen p53 (Homo sapiens) (UniProt P04637); test: Activation of p53 pathway in human HeLa cells assessed as increase in MDM2 level at 1 uM incubated for 24 hrs by Western blot analysis; format: cell-based
MOLM-13 [12] = test: Induction of apoptosis in human MOLM-13 cells assessed as viable cells at 0.1 uM incubated for 24 hrs by Annexin V-FITC/PI staining based flow cytometry (reference value: 95.1 %); format: functional; conditions: read-out: Activity
MOLM-13 [13] = test: cells; conditions: Homo sapiens, MOLM-13, 48 h
MOLM-13 [14] = test: Induction of apoptosis in human MOLM-13 cells assessed as early apoptotic cells at 8.1 uM incubated for 24 hrs by Annexin V-FITC/PI staining based flow cytometry (reference value: 4.44 %); format: functional
[15] = biological target: Cellular tumor antigen p53 (Homo sapiens) (UniProt P04637); test: Activation of p53 pathway in human HCT-116 cells assessed as increase in p21 level at 1 uM incubated for 24 hrs by Western blot analysis; format: cell-based; conditions: filed as activator
[16] = Selectivity index, ratio of IC50 for HEK293 cells to IC50 for human A549 cells; format: toxicity; conditions: HEK293 cells versus A549 cells, read-out: Ratio IC50
[17] = Selectivity index, ratio of IC50 for HEK293 cells to IC50 for human SW480 cells
[18] = biological target: Cellular tumor antigen p53 (Homo sapiens) (UniProt P04637); test: Activation of p53 pathway in human MOLM-13 cells assessed as increase in MDM2 mRNA level incubated for 24 hrs by qPCR analysis; format: cell-based; conditions: filed as activator, dose 0.038-0.6 µM
[19] = biological target: Cellular tumor antigen p53 (Homo sapiens) (UniProt P04637); test: Activation of p53 pathway in human MOLM-13 cells assessed as increase in p21 mRNA level incubated for 24 hrs by qPCR analysis; format: cell-based; conditions: filed as activator, dose 0.038-0.6 µM
MOLM-13 [20] = test: Induction of apoptosis in human MOLM-13 cells assessed as late apoptotic cells at 0.3 uM incubated for 24 hrs by Annexin V-FITC/PI staining based flow cytometry (reference value: 0.457 %); format: functional
[21] = biological target: Cellular tumor antigen p53 (Homo sapiens) (UniProt P04637); test: Activation of p53 pathway in human MOLM-13 cells assessed as increase in MDM2 level incubated for 24 hrs by Western blot analysis; format: cell-based; conditions: filed as activator, dose 0.038-0.6 µM
MOLM-13 [22] = test: Induction of apoptosis in human MOLM-13 cells assessed as late apoptotic cells at 0.1 uM incubated for 24 hrs by Annexin V-FITC/PI staining based flow cytometry (reference value: 0.457 %); format: functional
[23] = Selectivity index, ratio of IC50 for HEK293 cells to IC50 for human HeLa cells; format: toxicity; conditions: HEK293 cells versus HeLa cells, read-out: Ratio IC50
[24] = Antiproliferative activity against HEK293 cells incubated for 4 days by CCK8 assay; format: toxicity, cell-based; conditions: human
MOLM-13 [25] = test: Induction of apoptosis in human MOLM-13 cells assessed as increase in caspase-3 level at 0.15 to 0.6 uM incubated for 24 hrs by Western blot analysis; format: functional, cell-based; conditions: dose 0.15-0.6 µM
MOLM-13 [26] = test: Induction of apoptosis in human MOLM-13 cells assessed as late apoptotic cells at 8.1 uM incubated for 24 hrs by Annexin V-FITC/PI staining based flow cytometry (reference value: 0.457 %); format: functional
HeLa = test: cells; conditions: Homo sapiens, 96 h
SW480 = test: cells; conditions: Homo sapiens, SW480, 96 h
[27] = biological target: Cellular tumor antigen p53 (Homo sapiens) (UniProt P04637); test: Activation of p53 pathway in human HeLa cells assessed as increase in p53 level at 1 uM incubated for 24 hrs by Western blot analysis; format: cell-based
MOLM-13 [28] = test: Induction of apoptosis in human MOLM-13 cells assessed as viable cells at 2.7 uM incubated for 24 hrs by Annexin V-FITC/PI staining based flow cytometry (reference value: 95.1 %); format: functional; conditions: read-out: Activity
[29] = biological target: Cellular tumor antigen p53 (Homo sapiens) (UniProt P04637); test: Activation of p53 pathway in human HeLa cells assessed as increase in p21 level at 1 uM incubated for 24 hrs by Western blot analysis; format: cell-based
MOLM-13 [30] = test: Induction of apoptosis in human MOLM-13 cells assessed as early apoptotic cells at 0.3 uM incubated for 24 hrs by Annexin V-FITC/PI staining based flow cytometry (reference value: 4.44 %); format: functional
MOLM-13 [31] = test: Induction of apoptosis in human MOLM-13 cells assessed as necrotic cells at 8.1 uM incubated for 24 hrs by Annexin V-FITC/PI staining based flow cytometry (reference value: 0.020 %); format: functional
MOLM-13 [32] = test: Induction of apoptosis in human MOLM-13 cells assessed as increase in PARP cleavage at 0.15 to 0.6 uM incubated for 24 hrs by Western blot analysis; format: functional, cell-based; conditions: dose 0.15-0.6 µM
MOLM-13 [33] = test: Induction of apoptosis in human MOLM-13 cells assessed as viable cells at 24.3 uM incubated for 24 hrs by Annexin V-FITC/PI staining based flow cytometry (reference value: 95.1 %); format: functional; conditions: read-out: Activity

Sequence of Cellular tumor antigen p53 (Homo sapiens) (P04637 whole entry, looked up): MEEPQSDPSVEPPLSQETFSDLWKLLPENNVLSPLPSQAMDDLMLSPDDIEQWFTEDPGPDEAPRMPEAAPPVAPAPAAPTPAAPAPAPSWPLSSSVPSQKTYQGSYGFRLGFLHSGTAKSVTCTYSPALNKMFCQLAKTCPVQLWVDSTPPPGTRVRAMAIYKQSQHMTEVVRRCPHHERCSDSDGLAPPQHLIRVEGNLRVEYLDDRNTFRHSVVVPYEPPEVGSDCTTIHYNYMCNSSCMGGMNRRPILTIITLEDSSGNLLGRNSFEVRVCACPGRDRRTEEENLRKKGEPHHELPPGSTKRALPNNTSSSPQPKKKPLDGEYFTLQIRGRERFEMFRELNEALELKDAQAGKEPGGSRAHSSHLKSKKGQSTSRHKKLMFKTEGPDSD
Sequence of Tumour suppressor p53/oncoprotein Mdm2 (P04637 whole entry): as the sequence (P04637 whole entry, looked up) above
Sequence of Tumour suppressor p53/oncoprotein Mdm2 (Q00987 whole entry): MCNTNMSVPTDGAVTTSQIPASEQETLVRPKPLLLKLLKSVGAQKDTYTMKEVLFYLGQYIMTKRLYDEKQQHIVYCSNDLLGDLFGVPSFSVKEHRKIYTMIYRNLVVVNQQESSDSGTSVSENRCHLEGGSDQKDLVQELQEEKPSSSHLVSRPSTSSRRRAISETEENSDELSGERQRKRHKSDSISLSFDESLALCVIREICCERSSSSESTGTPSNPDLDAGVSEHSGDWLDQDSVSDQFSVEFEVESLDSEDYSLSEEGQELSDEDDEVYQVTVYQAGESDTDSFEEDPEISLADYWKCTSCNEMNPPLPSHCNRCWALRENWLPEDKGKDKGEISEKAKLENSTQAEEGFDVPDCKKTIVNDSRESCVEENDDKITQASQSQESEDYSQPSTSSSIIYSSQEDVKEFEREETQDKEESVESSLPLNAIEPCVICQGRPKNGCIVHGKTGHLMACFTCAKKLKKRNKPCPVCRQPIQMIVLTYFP

COc1cc(C(=O)O)ccc1N1CN2[C@@H](CC(C)(C)C)[C@@]3(CNc4cc(Cl)ccc43)[C@@H](c3cccc(Cl)c3)[C@@H]2C1=O
Activity (MOLM-13 [1]): 89.4%
IC50 (A549): 0.184 µM
Activity (MOLM-13 [2]): 1.96%
Activity (MOLM-13 [3]): 1.06%
Activity (MOLM-13 [4]): 1.18%
Activity [5]: Active
Activity (MOLM-13 [6]): 68.6%
Activity (MOLM-13 [7]): 15.2%
Activity (MOLM-13 [8]): 0.124%
viability at 0.9 µM (MOLM-13 [9]): 50%
Ki [10]: 0.0004 µM
Activity [11]: inactive
viability at 0.1 µM (MOLM-13 [12]): 83.8%
IC50 (MOLM-13 [13]): 0.0008 µM
Activity (MOLM-13 [14]): 71%
Activity [15]: Active
selectivity ratio [16]: 52
Ratio IC50 [17]: 1.6
Activity [18]: Dose-Dependent Effect
Activity [19]: Dose-Dependent Effect
Activity (MOLM-13 [20]): 0.998%
Activity [21]: Dose-Dependent Effect
Activity (MOLM-13 [22]): 0.797%
selectivity ratio [23]: 0.8
IC50 at 4 days [24]: 9.65 µM
Activity (MOLM-13 [25]): Active
Activity (MOLM-13 [26]): 1.41%
IC50 (HeLa): 12.3 µM
IC50 (SW480): 5.94 µM
Activity [27]: inactive
viability at 2.7 µM (MOLM-13 [28]): 30.1%
Activity [29]: inactive
Activity (MOLM-13 [30]): 24.4%
Activity (MOLM-13 [31]): 0.176%
Activity (MOLM-13 [32]): Active
viability at 24.3 µM (MOLM-13 [33]): 8.63%
